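Test compounds were applied to cells in 96-well plates for 48 hours at 5 doses. GI50 marks 50% less growth. The concentration for full growth arrest is given as TGI.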
Assays:
Experiment in all cases: NCI anticancer screen, dose series, 48 h
U251 CNS = tested on: U251 CNS
HS 578T breast = tested on: HS 578T breast
SK-MEL-5 melanoma = tested on: SK-MEL-5 melanoma
SN12C renal = tested on: SN12C renal
SK-MEL-2 melanoma = tested on: SK-MEL-2 melanoma
SW-620 colon = tested on: SW-620 colon
CCRF-CEM leukemia = tested on: CCRF-CEM leukemia
HCT-116 colon = tested on: HCT-116 colon
UACC-257 melanoma = tested on: UACC-257 melanoma
UACC-62 melanoma = tested on: UACC-62 melanoma
NCI-H226 lung = tested on: NCI-H226 lung
MCF7 breast = tested on: MCF7 breast
COLO 205 colon = tested on: COLO 205 colon
SK-MEL-28 melanoma = tested on: SK-MEL-28 melanoma
OVCAR-8 ovarian = tested on: OVCAR-8 ovarian
CAKI-1 renal = tested on: CAKI-1 renal
HCT-15 colon = tested on: HCT-15 colon
DU-145 prostate = tested on: DU-145 prostate
NCI-H460 lung = tested on: NCI-H460 lung
PC-3 prostate = tested on: PC-3 prostate
MDA-MB-231 breast = tested on: MDA-MB-231 breast
HOP-62 NSCLC = tested on: HOP-62 NSCLC
OVCAR-4 ovarian = tested on: OVCAR-4 ovarian
ACHN renal = tested on: ACHN renal
SNB-19 CNS = tested on: SNB-19 CNS
IGROV1 ovarian = tested on: IGROV1 ovarian
MALME-3M melanoma = tested on: MALME-3M melanoma
NCI-H23 lung = tested on: NCI-H23 lung
HL-60(TB) leukemia = tested on: HL-60(TB) leukemia
BT-549 breast = tested on: BT-549 breast
A549 NSCLC = tested on: A549 NSCLC
RXF 393 renal = tested on: RXF 393 renal
SR leukemia = tested on: SR leukemia
NCI/ADR-RES ovarian = tested on: NCI/ADR-RES ovarian
K-562 leukemia = tested on: K-562 leukemia
TK-10 renal = tested on: TK-10 renal
HCC-2998 colon = tested on: HCC-2998 colon
NCI-H522 lung = tested on: NCI-H522 lung
LOX IMVI melanoma = tested on: LOX IMVI melanoma
786-0 renal = tested on: 786-0 renal
EKVX NSCLC = tested on: EKVX NSCLC
KM12 colon = tested on: KM12 colon
SF-295 CNS = tested on: SF-295 CNS
SK-OV-3 ovarian = tested on: SK-OV-3 ovarian
HOP-92 NSCLC = tested on: HOP-92 NSCLC
MDA-MB-468 breast = tested on: MDA-MB-468 breast
OVCAR-3 ovarian = tested on: OVCAR-3 ovarian
SF-268 CNS = tested on: SF-268 CNS
M14 melanoma = tested on: M14 melanoma
SNB-75 CNS = tested on: SNB-75 CNS
OVCAR-5 ovarian = tested on: OVCAR-5 ovarian
A498 renal = tested on: A498 renal
T-47D breast = tested on: T-47D breast
SF-539 CNS = tested on: SF-539 CNS
MDA-MB-435 = tested on: MDA-MB-435
UO-31 renal = tested on: UO-31 renal
HT29 colon = tested on: HT29 colon
RPMI-8226 leukemia = tested on: RPMI-8226 leukemia

CC/C(=C(/c1ccc(O)cc1)c1ccc(OCCN(C)C(=O)COCCOCCNC(=O)Cc2ccc3c(c2)CN([C@@H]2CCC(=O)NC2=O)C3=O)cc1)c1ccccc1 showed a GI50 (U251 CNS) of over 35.3 µM, a TGI (U251 CNS) of over 74.7 µM and a GI50 (HS 578T breast) of 0.427 µM. It also gave a TGI (HS 578T breast) of over 25.2 µM, a GI50 (SK-MEL-5 melanoma) of 7.88 µM and a TGI (SK-MEL-5 melanoma) of over 28.2 µM. For the same molecule, the GI50 (SN12C renal) was 1.01 µM, the TGI (SN12C renal) was over 43 µM and the GI50 (SK-MEL-2 melanoma) was 1.14 µM. For the same molecule, the TGI (SK-MEL-2 melanoma) was 9.32 µM, the GI50 (SW-620 colon) was 0.49 µM and the TGI (SW-620 colon) was over 40.1 µM. For the same molecule, the GI50 (CCRF-CEM leukemia) was 0.132 µM, the TGI (CCRF-CEM leukemia) was over 100 µM and the GI50 (HCT-116 colon) was over 46.9 µM. The TGI (HCT-116 colon) was over 84 µM, the GI50 (UACC-257 melanoma) was over 44.7 µM and the TGI (UACC-257 melanoma) was over 76 µM. For the same molecule, the GI50 (UACC-62 melanoma) was over 31.3 µM, the TGI (UACC-62 melanoma) was over 54.1 µM and the GI50 (NCI-H226 lung) was 1.68 µM. The TGI (NCI-H226 lung) was over 44.4 µM, the GI50 (MCF7 breast) was under 0.0192 µM and the TGI (MCF7 breast) was over 40 µM. It also gave a GI50 (COLO 205 colon) of 0.702 µM, a TGI (COLO 205 colon) of 8.99 µM and a GI50 (SK-MEL-28 melanoma) of 6.19 µM. For the same molecule, the TGI (SK-MEL-28 melanoma) was over 44 µM, the GI50 (OVCAR-8 ovarian) was 0.939 µM and the TGI (OVCAR-8 ovarian) was over 100 µM. It also gave a GI50 (CAKI-1 renal) of over 26.8 µM, a TGI (CAKI-1 renal) of over 100 µM and a GI50 (HCT-15 colon) of over 28 µM. For the same molecule, the TGI (HCT-15 colon) was over 100 µM, the GI50 (DU-145 prostate) was over 53 µM and the TGI (DU-145 prostate) was over 100 µM. The GI50 (NCI-H460 lung) was over 56.7 µM, the TGI (NCI-H460 lung) was over 100 µM and the GI50 (PC-3 prostate) was 0.407 µM. The TGI (PC-3 prostate) was over 100 µM, the GI50 (MDA-MB-231 breast) was 0.0438 µM and the TGI (MDA-MB-231 breast) was 0.173 µM. The GI50 (HOP-62 NSCLC) was 1.12 µM, the TGI (HOP-62 NSCLC) was 10.1 µM and the GI50 (OVCAR-4 ovarian) was 13.6 µM. It also gave a TGI (OVCAR-4 ovarian) of over 100 µM, a GI50 (ACHN renal) of over 100 µM and a TGI (ACHN renal) of over 100 µM. The GI50 (SNB-19 CNS) was 1.11 µM, the TGI (SNB-19 CNS) was over 87 µM and the GI50 (IGROV1 ovarian) was 0.166 µM. It also gave a TGI (IGROV1 ovarian) of over 24.8 µM, a GI50 (MALME-3M melanoma) of 0.112 µM and a TGI (MALME-3M melanoma) of 1.01 µM. It also gave a GI50 (NCI-H23 lung) of over 40.6 µM, a TGI (NCI-H23 lung) of over 68.9 µM and a GI50 (HL-60(TB) leukemia) of under 0.0208 µM. The GI50 (BT-549 breast) was 0.0554 µM, the TGI (BT-549 breast) was 0.509 µM and the GI50 (A549 NSCLC) was over 34.7 µM. The TGI (A549 NSCLC) was over 100 µM, the GI50 (RXF 393 renal) was 3.25 µM and the TGI (RXF 393 renal) was over 30.7 µM. It also gave a GI50 (SR leukemia) of 10 µM, a TGI (SR leukemia) of over 44.9 µM and a GI50 (NCI/ADR-RES ovarian) of over 100 µM. The TGI (NCI/ADR-RES ovarian) was over 100 µM, the GI50 (K-562 leukemia) was 7.91 µM and the TGI (K-562 leukemia) was over 100 µM. For the same molecule, the GI50 (TK-10 renal) was over 100 µM, the TGI (TK-10 renal) was over 100 µM and the GI50 (HCC-2998 colon) was 2.16 µM. It also gave a TGI (HCC-2998 colon) of over 35.3 µM, a GI50 (NCI-H522 lung) of over 33.1 µM and a TGI (NCI-H522 lung) of over 53.1 µM. The GI50 (LOX IMVI melanoma) was over 37.1 µM, the TGI (LOX IMVI melanoma) was over 59.9 µM and the GI50 (786-0 renal) was 25.6 µM. For the same molecule, the TGI (786-0 renal) was over 100 µM, the TGI (EKVX NSCLC) was over 100 µM and the GI50 (KM12 colon) was 2.98 µM. It also gave a TGI (KM12 colon) of over 47.3 µM, a GI50 (SF-295 CNS) of over 31.3 µM and a TGI (SF-295 CNS) of over 100 µM. For the same molecule, the GI50 (SK-OV-3 ovarian) was 3.57 µM, the TGI (SK-OV-3 ovarian) was over 100 µM and the GI50 (HOP-92 NSCLC) was 0.0677 µM. For the same molecule, the TGI (HOP-92 NSCLC) was 1.8 µM, the GI50 (MDA-MB-468 breast) was under 0.0167 µM and the TGI (MDA-MB-468 breast) was 0.214 µM. It also gave a GI50 (OVCAR-3 ovarian) of 10.3 µM, a TGI (OVCAR-3 ovarian) of over 53 µM and a GI50 (SF-268 CNS) of 3 µM. For the same molecule, the TGI (SF-268 CNS) was over 100 µM, the GI50 (M14 melanoma) was 7.95 µM and the TGI (M14 melanoma) was over 100 µM. For the same molecule, the GI50 (SNB-75 CNS) was 0.0486 µM, the TGI (SNB-75 CNS) was 13.9 µM and the GI50 (OVCAR-5 ovarian) was 13 µM. For the same molecule, the TGI (OVCAR-5 ovarian) was over 100 µM, the GI50 (A498 renal) was over 100 µM and the TGI (A498 renal) was over 100 µM. It also gave a GI50 (T-47D breast) of under 0.0166 µM, a TGI (T-47D breast) of 1.48 µM and a GI50 (SF-539 CNS) of over 32.6 µM. For the same molecule, the TGI (SF-539 CNS) was over 49.2 µM, the GI50 (MDA-MB-435) was 15.7 µM and the TGI (MDA-MB-435) was over 50.7 µM. It also gave a GI50 (UO-31 renal) of over 100 µM, a TGI (UO-31 renal) of over 100 µM and a GI50 (HT29 colon) of over 29.8 µM. The TGI (HT29 colon) was over 100 µM, the GI50 (RPMI-8226 leukemia) was 3.35 µM and the TGI (RPMI-8226 leukemia) was over 32.3 µM.

From PubChem BioAssay (NCI)
